HELM strings list units from the 5' end as sugar, base in round brackets, then linkage (d deoxyribose, r ribose, m 2'-O-methyl, p phosphodiester). Strings are as the collection lists them; they lack the last nucleoside at the 3' end of the tested compound. [moe] = 2'-O-(2-methoxyethyl) (MOE); [sp] = phosphorothioate linkage; [m5C] = 5-methylcytosine

The target of the data set is GFAP. As to the kind of experiment: mouse, dose not given. To be noted: ASO.
“RNA1{[moe](T)[sp].[moe]([m5C])p.[moe](A)p.[moe](G)p.[moe]([m5C])[sp].d([m5C])[sp].d(T)[sp].d(G)[sp].d(G)[sp].d(T)[sp].d(T)[sp].d(A)[sp].d(G)[sp].[moe]([m5C])p.[moe]([m5C])p.[moe](T)[sp].[moe](T)}$$$$ (last 3' nucleoside missing)” displayed a 3 h FOB score of 3 score 0-7.

“RNA1{[moe](T)[sp].[moe]([m5C])p.[moe](A)p.[moe](G)p.[moe]([m5C])p.[moe]([m5C])p.d(T)[sp].d(G)[sp].d(G)[sp].d(T)[sp].d(T)[sp].d(A)[sp].d(G)[sp].d([m5C])[sp].d([m5C])[sp].d(T)[sp].[moe](T)p.[moe](T)[sp].[moe]([m5C])}$$$$ (last 3' nucleoside missing)” registered a 3 h FOB score of 4 score 0-7.

“RNA1{[moe](T)[sp].[moe]([m5C])p.[moe](A)p.[moe](G)p.[moe]([m5C])p.d([m5C])[sp].d(T)[sp].d(G)[sp].d(G)[sp].d(T)[sp].d(T)[sp].d(A)[sp].d(G)[sp].d([m5C])[sp].d([m5C])[sp].[moe](T)p.[moe](T)p.[moe](T)[sp].[moe]([m5C])}$$$$ (last 3' nucleoside missing)” came in with a 3 h FOB score of 4 score 0-7.

In the case of “RNA1{[moe](T)[sp].[moe]([m5C])p.[moe](A)p.[moe](G)p.d([m5C])[sp].d([m5C])[sp].d(T)[sp].d(G)[sp].d(G)[sp].d(T)[sp].d(T)[sp].d(A)[sp].d(G)[sp].d([m5C])[sp].[moe]([m5C])p.[moe](T)p.[moe](T)p.[moe](T)[sp].[moe]([m5C])}$$$$ (last 3' nucleoside missing)”, the 3 h FOB score stood at 4 score 0-7.

For “RNA1{[moe](T)[sp].[moe]([m5C])p.[moe](A)p.[moe]([m5C])p.[moe](A)[sp].d(T)[sp].d(T)[sp].d([m5C])[sp].d(A)[sp].d([m5C])[sp].d(T)[sp].d(A)[sp].d(A)[sp].[moe](T)p.[moe](A)p.[moe](T)[sp].[moe](T)}$$$$ (last 3' nucleoside missing)”, the 3 h FOB score worked out at 0 score 0-7.

“RNA1{[moe](T)[sp].[moe]([m5C])p.[moe](A)p.[moe]([m5C])p.[moe](A)[sp].d([m5C])[sp].d(T)[sp].d([m5C])[sp].d([m5C])[sp].d(T)[sp].d([m5C])[sp].d(A)[sp].d(G)[sp].d([m5C])[sp].d(T)[sp].[moe](A)p.[moe](G)p.[moe](G)[sp].[moe](T)}$$$$ (last 3' nucleoside missing)” registered a 3 h FOB score of 1 score 0-7.

“RNA1{[moe](T)[sp].[moe]([m5C])p.[moe](A)p.[moe]([m5C])p.[moe](A)p.[moe](T)p.d(T)[sp].d([m5C])[sp].d(A)[sp].d([m5C])[sp].d(T)[sp].d(A)[sp].d(A)[sp].d(T)[sp].d(A)[sp].d(T)[sp].[moe](T)p.[moe](T)[sp].[moe](A)}$$$$ (last 3' nucleoside missing)” registered a 3 h FOB score of 0 score 0-7.

The substance “RNA1{[moe](T)[sp].[moe]([m5C])p.[moe](A)p.[moe]([m5C])p.[moe](A)p.d(T)[sp].d(T)[sp].d([m5C])[sp].d(A)[sp].d([m5C])[sp].d(T)[sp].d(A)[sp].d(A)[sp].d(T)[sp].d(A)[sp].[moe](T)p.[moe](T)p.[moe](T)[sp].[moe](A)}$$$$ (last 3' nucleoside missing)” came in with a 3 h FOB score of 0 score 0-7.

Take “RNA1{[moe](T)[sp].[moe]([m5C])p.[moe](A)p.[moe]([m5C])p.d(A)[sp].d(T)[sp].d(T)[sp].d([m5C])[sp].d(A)[sp].d([m5C])[sp].d(T)[sp].d(A)[sp].d(A)[sp].d(T)[sp].[moe](A)p.[moe](T)p.[moe](T)p.[moe](T)[sp].[moe](A)}$$$$ (last 3' nucleoside missing)”: the 3 h FOB score came out at 0 score 0-7.

In the case of “RNA1{[moe](T)[sp].[moe]([m5C])p.[moe](T)p.[moe](G)p.[moe](T)[sp].d(G)[sp].d([m5C])[sp].d(T)[sp].d(T)[sp].d(T)[sp].d(A)[sp].d(G)[sp].d(T)[sp].d(G)[sp].d(A)[sp].[moe]([m5C])p.[moe]([m5C])p.[moe](T)[sp].[moe](G)}$$$$ (last 3' nucleoside missing)”, the 3 h FOB score turned out to be 4 score 0-7.

As for “RNA1{[moe](T)[sp].[moe]([m5C])p.[moe](T)p.[moe](G)p.[moe]([m5C])[sp].d(T)[sp].d([m5C])[sp].d(G)[sp].d(G)[sp].d(G)[sp].d([m5C])[sp].d([m5C])[sp].d([m5C])[sp].d([m5C])[sp].d(T)[sp].[moe]([m5C])p.[moe](A)p.[moe](T)[sp].[moe](G)}$$$$ (last 3' nucleoside missing)”, the 3 h FOB score is 2 score 0-7.

In turn, “RNA1{[moe](T)[sp].[moe]([m5C])p.[moe](T)p.[moe](G)p.[moe]([m5C])[sp].d([m5C])[sp].d(A)[sp].d(T)[sp].d(T)[sp].d(T)[sp].d(A)[sp].d(T)[sp].d([m5C])[sp].[moe](T)p.[moe](G)p.[moe](T)[sp].[moe](G)}$$$$ (last 3' nucleoside missing)” registered a 3 h FOB score of 3 score 0-7.

Consider “RNA1{[moe](T)[sp].[moe]([m5C])p.[moe](T)p.[moe](G)p.[moe]([m5C])[sp].d([m5C])[sp].d(A)[sp].d(T)[sp].d(T)[sp].d(T)[sp].d(A)[sp].d(T)[sp].d([m5C])[sp].d(T)[sp].d(G)[sp].[moe](T)p.[moe](G)p.[moe]([m5C])[sp].[moe](T)}$$$$ (last 3' nucleoside missing)”, for which the 3 h FOB score was found to be 0 score 0-7.

The substance “RNA1{[moe](T)[sp].[moe]([m5C])p.[moe](T)p.[moe](G)p.[moe]([m5C])p.d([m5C])[sp].d(A)[sp].d(T)[sp].d(T)[sp].d(T)[sp].d(A)[sp].d(T)[sp].d([m5C])[sp].d(T)[sp].d(G)[sp].[moe](T)p.[moe](G)p.[moe]([m5C])[sp].[moe](T)}$$$$ (last 3' nucleoside missing)” displayed a 3 h FOB score of 1 score 0-7.

“RNA1{[moe](T)[sp].[moe]([m5C])p.[moe](T)p.[moe](T)p.[moe](T)[sp].d(A)[sp].d(T)[sp].d(T)[sp].d(T)[sp].d(T)[sp].d(T)[sp].d([m5C])[sp].d([m5C])[sp].[moe](T)p.[moe]([m5C])p.[moe](A)[sp].[moe](G)}$$$$ (last 3' nucleoside missing)”: the 3 h FOB score was 1 score 0-7.

Regarding “RNA1{[moe](T)[sp].[moe]([m5C])p.[moe](T)p.[moe](T)p.[moe](T)[sp].d(A)[sp].d(T)[sp].d(T)[sp].d(T)[sp].d(T)[sp].d(T)[sp].d([m5C])[sp].d([m5C])[sp].d(T)[sp].d([m5C])[sp].[moe](A)p.[moe](G)p.[moe]([m5C])[sp].[moe](G)}$$$$ (last 3' nucleoside missing)”, the 3 h FOB score worked out at 1 score 0-7.

“RNA1{[moe](T)[sp].[moe]([m5C])p.[moe](T)p.[moe](T)p.[moe](T)p.[moe](A)p.d(T)[sp].d(T)[sp].d(T)[sp].d(T)[sp].d(T)[sp].d([m5C])[sp].d([m5C])[sp].d(T)[sp].d([m5C])[sp].d(A)[sp].[moe](G)p.[moe]([m5C])[sp].[moe](G)}$$$$ (last 3' nucleoside missing)” showed a 3 h FOB score of 0 score 0-7.

The substance “RNA1{[moe](T)[sp].[moe]([m5C])p.[moe](T)p.[moe](T)p.d(T)[sp].d(A)[sp].d(T)[sp].d(T)[sp].d(T)[sp].d(T)[sp].d(T)[sp].d([m5C])[sp].d([m5C])[sp].d(T)[sp].[moe]([m5C])p.[moe](A)p.[moe](G)p.[moe]([m5C])[sp].[moe](G)}$$$$ (last 3' nucleoside missing)” registered a 3 h FOB score of 1 score 0-7.

In the case of “RNA1{[moe](T)[sp].[moe]([m5C])p.[moe](T)p.[moe]([m5C])p.[moe](A)[sp].d(G)[sp].d(T)[sp].d(T)[sp].d(T)[sp].d(T)[sp].d([m5C])[sp].d([m5C])[sp].d(T)[sp].d([m5C])[sp].d([m5C])[sp].[moe](A)p.[moe](G)p.[moe]([m5C])[sp].[moe](A)}$$$$ (last 3' nucleoside missing)”, the 3 h FOB score was determined as 4 score 0-7.

In turn, “RNA1{[moe](T)[sp].[moe]([m5C])p.[moe](T)p.[moe]([m5C])p.[moe](T)[sp].d([m5C])[sp].d([m5C])[sp].d(T)[sp].d(G)[sp].d(T)[sp].d(T)[sp].d(T)[sp].d([m5C])[sp].d(A)[sp].d(G)[sp].[moe]([m5C])p.[moe](A)p.[moe](T)[sp].[moe]([m5C])}$$$$ (last 3' nucleoside missing)” returned a 3 h FOB score of 3 score 0-7.

Take “RNA1{[moe](T)[sp].[moe]([m5C])p.[moe]([m5C])p.[moe](T)p.[moe](G)[sp].d([m5C])[sp].d([m5C])[sp].d(T)[sp].d([m5C])[sp].d(A)[sp].d([m5C])[sp].d(A)[sp].d(T)[sp].d([m5C])[sp].d(A)[sp].[moe]([m5C])p.[moe](A)p.[moe](T)[sp].[moe]([m5C])}$$$$ (last 3' nucleoside missing)”: the 3 h FOB score was found to be 0 score 0-7.

Substance “RNA1{[moe](T)[sp].[moe]([m5C])p.[moe]([m5C])p.[moe](T)p.[moe]([m5C])[sp].d(A)[sp].d(A)[sp].d(G)[sp].d(A)[sp].d(A)[sp].d([m5C])[sp].d([m5C])[sp].d(G)[sp].d(G)[sp].d(A)[sp].[moe](T)p.[moe]([m5C])p.[moe](T)[sp].[moe]([m5C])}$$$$ (last 3' nucleoside missing)” returned a 3 h FOB score of 1 score 0-7.

Take “RNA1{[moe]([m5C])[sp].[moe](A)p.[moe](A)p.[moe](G)p.[moe]([m5C])[sp].d(T)[sp].d([m5C])[sp].d(T)[sp].d(G)[sp].d([m5C])[sp].d([m5C])[sp].d(A)[sp].d(G)[sp].d(T)[sp].d(T)[sp].[moe](T)p.[moe](A)p.[moe](A)[sp].[moe](T)}$$$$ (last 3' nucleoside missing)”: the 3 h FOB score came out at 5 score 0-7.

“RNA1{[moe]([m5C])[sp].[moe](A)p.[moe](G)p.[moe](G)p.[moe](G)[sp].d([m5C])[sp].d(T)[sp].d(A)[sp].d([m5C])[sp].d([m5C])[sp].d(T)[sp].d(T)[sp].d(G)[sp].d(T)[sp].d([m5C])[sp].[moe](T)p.[moe](G)p.[moe](T)[sp].[moe](G)}$$$$ (last 3' nucleoside missing)” gave a 3 h FOB score of 6 score 0-7.

In turn, “RNA1{[moe]([m5C])[sp].[moe](A)p.[moe](G)p.[moe](T)p.[moe](A)p.[moe](T)p.d(T)[sp].d(A)[sp].d([m5C])[sp].d([m5C])[sp].d(T)[sp].d([m5C])[sp].d(T)[sp].d(A)[sp].d([m5C])[sp].d(T)[sp].[moe](A)p.[moe](G)[sp].[moe](T)}$$$$ (last 3' nucleoside missing)” yielded a 3 h FOB score of 0 score 0-7.

The values are drawn from the OligoGym collection.
